For data set [1] the following is noted: published studies; cited from earlier work.
Data set [2] is described as follows: Ex vivo human plasma stability / release kinetic study of CBD prodrugs. It is filed as in vitro ADME. The note with it: human blood plasma with citrate buffer; for stability / conversion of prodrug in plasma: over 24 h; for prodrug left after 24 h / concentration of cannabidiol (B1) released from prodrug after 24 h / concentration of cannabidiol (B1) at start of release: 37° C.; for concentration of cannabidiol (B1) released from prodrug after 24 h: HPLC; for concentration of cannabidiol (B1) at start of release: initial value of the release range. The protocol: For the preparation of citrate buffer solution (pH=7.6), 100 ml of HPLC water, 0.25 M sucrose and 40 mM sodium citrate were taken.
To construct a calibration curve, […] different concentration such as 0.78, 1.56, 3.12, 6.25, 12.5, 25, 50 mg/ml of CBD based prodrugs and the parent cannabidiol were prepared. All sample were analyzed by 4.6×250 mm, 5 μm end capped RP-C18 column and the mobile phase containing buffer (0.1% formic acid in water and 0.1% formic acid in acetonitrile) and in some case methanol were used at the flow rate of 1 mL/min at column temperature of 25° C. at 210 nm, 190 nm, 254 nm wavelength range. A volume of 10 μL was injected and a total run time of the assay range was between 15-40 mins. The markers were estimated by HPLC using gradient technique.
For the preparation of plasma sample, fresh 20 ml of human blood was taken to which 2 ml of citrate buffer was added and then vortex it for about 5 minutes. Immediately after this, the mixture was centrifuged at 8000 rpm for 20 minutes, resulting in the separation of two-layer like RBC and plasma (ethical approval number 1EC/GMC/Cat A/2020/267).
To check the stability of prodrugs in plasma, stock solution of prodrug in DMSO (5 mg/2 ml) was prepared and placed at −20° C. The plasma sample of 50 μl was taken in different eppendorf's followed by the addition of 5 μl prodrug solution, vertex for 2 min., incubated at 37° C. at the different time point (Schedule provided in Table 1). After 24 h, all the sample were added with 200 μl MeOH with the help of vertex for about 2 minutes followed by centrifuge for about 10 minutes with 4000 rpm and two layers of sample were separated. The upper layer of methanol sample was taken and immediately the methanol sample was analyzed by 4.6×250 mm, 5 μm end capped RP-C18 column and the mobile phase containing buffer (0.1% formic acid in water and 0.1% formic acid in acetonitrile) and in some case methanol were used at the flow rate of 1 mL/min at column temperature of 25° C. at 210 nm, 190 nm, 254 nm wavelength range. A volume of 10 μL was injected and a total run time of the assay range was 15-40 mins. The markers were estimated by HPLC using gradient technique. The results are depicted in FIG. 1 to FIG. 10.

Each structure is given as a SMILES string.

Take `C=C(C)[C@@H]1CCC(C)=C[C@H]1c1c(O)cc(CCCCC)cc1O` [Compound B1, cannabidiol]: the plasma protein binding in data set [1] is given as greater than 94%.
Regarding `C=C(C)[C@@H]1CCC(C)=C[C@H]1c1c(OC(=O)CN2CCOCC2)cc(CCCCC)cc1OC(=O)CN1CCOCC1` [Compound A1b, O,O-bis-(2-morpholinoacetyl) cannabidiol], the “stability / conversion of prodrug in plasma” value (from here on “stability / conversion”) in data set [2] is recorded as “immediately converted into mono substituted CBD derivative”.
In the case of `C=C(C)[C@@H]1CCC(C)=C[C@H]1c1c(O)cc(CCCCC)cc1OC(=O)CN1CCN(C)CC1` [Compound A7a, O-{2-(4-methylpiperazin-1-yl)acetyl} cannabidiol], in data set [2], the “prodrug left after 24 h” value worked out at 0.7% and the “concentration of prodrug at the initial time point (Pre-treatment)” value (shortened to “concentration of prodrug”) was 49.6%.
The corresponding values for `C=C(C)[C@@H]1CCC(C)=C[C@H]1c1c(O)cc(CCCCC)cc1OC(=O)CN1CCOCC1` [Compound A1a, O-(2-morpholinoacetyl) cannabidiol] are 5.5% and 49.1%.
For `C=C(C)[C@@H]1CCC(C)=C[C@H]1c1c(O)cc(CCCCC)cc1OC(=O)CN1CCN(c2ccccc2)CC1` [Compound A8a, O-{2-(4-phenylpiperazin-1-yl)acetyl} cannabidiol], the “stability / conversion” value in data set [2] is given as “quite stable”.
Consider `C=C(C)[C@@H]1CCC(C)=C[C@H]1c1c(O)cc(CCCCC)cc1OC(=O)CN1CCN(C2CC2)CC1` [Compound A5a, O-{2-(4-cyclopropylpiperazin-1-yl)acetyl} cannabidiol], for which, in data set [2], the “prodrug left after 24 h” value is on record as 11.1%, the “concentration of cannabidiol (B1) released from prodrug after 24 h” value (shortened to “concentration of cannabidiol … after 24 h”) amounted to 17.4%, the “concentration of cannabidiol (B1) at start of release” value came to 0% and the “concentration of prodrug” value is recorded as 51.4%.
As to `C=C(C)[C@@H]1CCC(C)=C[C@H]1c1c(O)cc(CCCCC)cc1OC(=O)CN1CCCC1` [Compound A10a, O-{2-(pyrrolidin-1-yl)acetyl} cannabidiol], in data set [2], the “prodrug left after 24 h” value came to 1.9% and the “concentration of prodrug” value is 51.3%.
The like results for `C=C(C)[C@@H]1CCC(C)=C[C@H]1c1c(O)cc(CCCCC)cc1OC(=O)CN1CCC(O)CC1` [Compound A3a, O-{2-(4-hydroxypiperidin-1-yl)acetyl} cannabidiol] were, in that order, “below detection limit” and 49.2%.
For the molecule `C=C(C)[C@@H]1CCC(C)=C[C@H]1c1c(OC(=O)CN2CCN(C3CC3)CC2)cc(CCCCC)cc1OC(=O)CN1CCN(C2CC2)CC1` [Compound A5b, O,O-bis-{2-(4-cyclopropylpiperazin-1-yl)acetyl} cannabidiol], in data set [2], the “time after which release of CBD (B1) started” value is greater than 16 h, the “concentration of cannabidiol … after 24 h” value is recorded as 8.8% and the “stability / conversion” value is on record as “immediately converted into mono substituted CBD derivative”.
As for `C=C(C)[C@@H]1CCC(C)=C[C@H]1c1c(O)cc(CCCCC)cc1OC(=O)CN1CCC(c2ccccc2)CC1` [Compound A2a, O-{2-(4-phenylpiperidin-1-yl)acetyl} cannabidiol], the “stability / conversion” value in data set [2] is recorded as “quite stable”.
In the case of `C=C(C)[C@@H]1CCC(C)=C[C@H]1c1c(O)cc(CCCCC)cc1OC(=O)CN1CCN(C(C)C)CC1` [Compound A6a, O-{2-(4-isopropylpiperazin-1-yl)acetyl} cannabidiol], in data set [2], the “prodrug left after 24 h” value is 11.1%, the “concentration of cannabidiol … after 24 h” value was found to be 26.8%, the “concentration of cannabidiol (B1) at start of release” value worked out at 0.6% and the “concentration of prodrug” value worked out at 51.3%.

These data come from US20260076982A1, “Prodrugs of Cannbidiol [CBD]-Type Phytocannabinoids and a Process for Preparation Thereof” (priority 2022, published 2026).
